Data: patent publication US12673918B2, “Small molecule RPN13 inhibitors with antitumor properties” (The Johns Hopkins University, priority 2019, dated 2026)
Read-outs that look alike come from different tables or passages of the source.

Tests used:
[1] = test system: PEA2; assay: cells; settings: read-out: cytotoxicity IC50 PEA2
Procedure: (§1) Cell lines and cytotoxicity assays: All cell lines were obtained from the American Type Culture Collection (ATCC) and cultured in the specified medium supplemented with 10% fetal bovine serum, 100 IU/mL penicillin, and 100 μg/mL streptomycin at 37° C. in a humidified 5% CO2/95% air incubator. […] To assess drug cytotoxicity, cells were seeded at 2,500 cells/well (10,000 cells/well for MM lines) in 100 μL medium in 96-well plate and after 24 treated with compounds for 72 h, incubated according to the manufacturer's protocol with the Thiazolyl Blue Tetrazolium Bromide (Sigma, M2128) and A570 measured using a Benchmark Plus microplate spectrophotometer (BIO-RAD). IC50 data was analyzed by Graphpad Prism software. In the chirality studies the cells were treated with compounds for 48 h, and the cells were incubated and measured via the preceeding protocols.

[2] = test system: CHOP-10 mRNA; assay: RT-qPCR of CHOP-10 mRNA, ES2 cells; assay type: cell-based, human; settings: ES2, 0.5 μM, 12 hr
Procedure: FIG. 7A illustrates ES2 cells (250,000 cells/well) treated with compounds at 1 μM for 12 hr and mRNA was isolated. Samples were subjected to RT-qPCR to measure CHOP10 and mRNA levels normalized to GAPDH expression. Significance versus DMSO control (ns=not significant, ** <0.01, *** <0.001, **** <0.0001).
FIG. 16A illustrates ES2 cells treated with compounds (0.5 μM) for 12 hr and CHOP-10 mRNA levels, an ER stress marker, which was analyzed by qRT-PCR.
Q-PCR to measure mRNA levels: Total RNA was isolated from cells using the RNeasy mini kit (Qiagen) according to the manufacturer's instructions. Extracted RNA was normalized for concentration and reverse transcribed using an iScript cDNA synthesis kit (Bio-Rad) according to the manufacturer's instructions. CHOP10 expression levels were measured by Taqman gene expression assays with Taqman gene expression master mix (Applied Biosystems) and run with a standard thermal cycling protocol. Spliced XBP1 mRNA was assayed with SsoFast EvaGreen Supermix (Bio-rad) following the protocol for the iCycler System using as primers: F: 5′-[…]-3′ and R: 5′-[…]-3′. Calculations were done according to the Livak method and normalized to the reference gene GAPDH. Each condition was replicated three times; each sample was run in triplicate.

[3] = test system: SKOV3; assay: MTT cytotoxicity assay, SKOV3; settings: Homo sapiens
[4] = test system: SUM149; assay: cells; settings: SUM149, read-out: cytotoxicity IC50 SUM149
Procedure: as §1

[5] = test system: intracellular ATP; assay: Luciferase-based ATP measurement, ES2 cells; assay type: cell-based, human; settings: luciferase expressing ES2 cells, 4 hr, sublethal doses
Procedure: Briefly, firefly luciferase expressing ES2 cells were treated for 4 hr with compounds at sublethal doses and the bioluminescence was measured in intact cells using luminometer by adding luciferin. […] This is associated with enhanced glycolysis while bortezomib suppresses oxidative phosphorylation (OXPHOS) (66).
ATP measurement assay: To measure ATP levels in cells, luciferase based bioluminescence assay was performed. Briefly cells stably expressing firefly luciferase plated in a 6 well plate (250,000 cells/well) in growth medium. After 24 h incubation, cells were treated with compounds at indicated concentrations for the period of 4 h and the bioluminescence was measured by IVIS 200 imager in intact cells by adding luciferin substrate to the growth medium. Cell viability was assessed in parallel using an MTT assay.

[6] = test system: ROS; assay: ROS by Amplex Red, ES2 cells; assay type: cell-based, human; settings: ES2, 12 hr; listed in order of potency
Procedure: FIG. 16C illustrates ES2 cells treated for 12 hr with compounds (or as a positive control, H2O2) at the indicated doses, and then reactive oxygen species (i.e. ROS) levels measured by adding Amplex Red and HRP.
Amplex Red Assay to measure ROS: Amplex Red reagent (#A12222, Thermo Scientific) combined with horseradish peroxidase (HRP) was used to detect H2O2. Briefly cells were treated in 96 well plates with corresponding compounds at indicated times. Next 50 μM Amplex® Red reagent plus 1 U/mL HRP in 50 mM sodium phosphate buffer, pH 7.4, were added to cells and incubated for 30 minutes at room temperature. Fluorescence was measured with a fluorescence-based microplate reader using excitation at 530±12.5 nm and detection at 580±25 nm. Background fluorescence of 969 units for Amplex® Red reagent, determined for a no-H2O2 control reaction, was subtracted from each value. H2O2 treatment (1 h) was used as positive control.

[7] = test system: intracellular GSH; assay: Total GSH assay, ES2 cells; assay type: cell-based, human; settings: ES2, 12 hr
Excerpt: FIG. 16B illustrates ES2 cells treated with compounds for 12 hr and the total GSH level assayed.
Recent insights indicate that ER stress and oxidative stress are highly interrelated biological process which regulate a wide range of signaling pathways in cells. […] Oxidative stress is characterized by an imbalance between the production of ROS and the availability of free GSH. Generation of ROS is considered an early event in the process of apoptotic cell death (68). To counteract ROS, cells upregulate antioxidant pathways including intracellular glutathione (GSH).
Luciferase and GSH assays: Sub-confluent cultures of cells were transfected with 4Ub-FL or FL plasmid using Lipofectamine 2000 reagent (Life Technologies). Cells were seeded at 10,000 cells/well in 96-wells plate 48 hr post transfection and incubated with compounds or vehicle (DMSO) at the doses and times indicated. Luciferase activity in cell lysate was determined with a luciferase assay kit (Promega) according to the manufacturer's instructions. Bioluminescence was measured by using a Glomax Multidetection system (Promega). Glutathione was assayed using the Promega GSH assay kit (V6611).

[8] = test system: TC1-Lu; assay: MTT cytotoxicity assay, TC1-Lu; settings: read-out: cytotoxicity IC50 TC1-Lu
Procedure: as §1

[9] = test system: BR5-Luc; assay: MTT cytotoxicity assay, BR5-Luc; settings: read-out: cytotoxicity IC50 BR5-Luc, Tables 3A/4B/4C, BRCA2 − VE
[10] = test system: DLD-Seckle; assay: MTT cytotoxicity assay, DLD-Seckle; settings: read-out: cytotoxicity IC50 DLD-Seckle
Procedure: as §1

[11] = test system: HCT116; assay: MTT cytotoxicity assay, HCT116
[12] = test system: SiHa; assay: MTT cytotoxicity assay, SiHa
[13] = test system: HFF (Human Foreskin Fibroblast); assay: MTT cytotoxicity assay, HFF normal cells; assay type: cell-based; settings: read-out: IC50 HFF
Procedure: (§2) Cell lines and cytotoxicity assays: All cell lines were obtained from the American Type Culture Collection (ATCC) and cultured in the specified medium supplemented with 10% fetal bovine serum, 100 IU/mL penicillin, and 100 μg/mL streptomycin at 37° C. in a humidified 5% CO2/95% air incubator. […] To assess drug cytotoxicity, cells were seeded at 2,500 cells/well (10,000 cells/well for MM lines) in 100 μL medium in 96-well plate and after 24 treated with compounds for 72 h, incubated according to the manufacturer's protocol with the Thiazolyl Blue Tetrazolium Bromide (Sigma, M2128) and A570 measured using a Benchmark Plus microplate spectrophotometer (BIO-RAD). IC50 data was analyzed by Graphpad Prism software.

[14] = test system: PC3; assay: MTT cytotoxicity assay, PC3; settings: Homo sapiens
[15] = test system: ME180; assay: MTT cytotoxicity assay, ME180; assay type: cell-based; settings: Homo sapiens, read-out: IC50 ME180
Procedure: as §2

[16] = test system: HCC1806; assay: MTT cytotoxicity assay, HCC1806; assay type: cell-based; settings: Homo sapiens, read-out: IC50 HCC1806
Procedure: as §2

[17] = test system: LNCaP; assay: MTT cytotoxicity assay, LNCaP; settings: Homo sapiens
[18] = SK-OV-3, read-out: cytotoxicity IC50 SKOV3
[19] = read-out: cytotoxicity IC50 HCT116, Tables 3A/4B/4C, MTT assay
[20] = read-out: cytotoxicity IC50 SiHa, Tables 3A/4B/4C, MTT assay
[21] = Table 3, MTT, 48 hr, normal Human Foreskin Fibroblast
[22] = read-out: IC50 HCT116, Table 3, MTT, 48 hr, Colon
[23] = PC-3, read-out: cytotoxicity IC50 PC3
[24] = read-out: cytotoxicity IC50 LNCAP

Row | SMILES | IC50 [1] [nM] | CHOP10 transcript levels [2] | IC50 [3, 18] [nM] | IC50 [4] [nM] | ATP-dependent bioluminescence (intracellular ATP levels) [5] | level of ROS (Amplex Red) [6] | intracellular GSH concentrations [7] | IC50 [8] [nM] | IC50 [9] [nM] | IC50 [10] [nM] | IC50 [11, 19] [nM] | IC50 [12, 20] [nM] | IC50 [13, 21] [nM] | IC50 [11, 22] [nM] | IC50 ([13]; Homo sapiens, Fibroblast, 48 h) [nM] | IC50 ([14]; PC-3, 48 h, read-out: IC50 PC3) [nM] | IC50 [14, 23] [nM] | IC50 ([15]; ME-180, 48 h) [nM] | IC50 ([16]; HCC1806, 48 h) [nM] | IC50 [17, 24] [nM] | also measured
1 | C[C@H]1/C(=C\c2ccc([N+](=O)[O-])cc2)C(=O)/C(=C/c2ccc([N+](=O)[O-])cc2)CN1C(=O)[C@@H](N)Cc1ccccc1 | 64 | significantly increased CHOP10 transcript levels | 40 | 20 | reduced bioluminescence | raised the level of ROS in a dose-dependent manner | reduced intracellular GSH concentrations | 114 | 5.7 | 55 | 80 | 34 | – | – | – | – | – | – | – | – | –
2 | CC(C)C[C@H](NC(=O)[C@H](Cc1ccccc1)NC(=O)c1cnccn1)B(O)O [Bortezomib, bortezomib, reference compound] | 30 | significantly increased CHOP10 transcript levels | 1.5 | 30 | not evident | raised the level of ROS in a dose-dependent manner | reduced intracellular GSH concentrations | 4.5 | 4.1 | – | – | – | > 100 | 3.2 | – | – | – | – | – | – | –
3 | N[C@@H](Cc1ccccc1)C(=O)N1C/C(=C\c2ccc([N+](=O)[O-])cc2)C(=O)/C(=C/c2ccc([N+](=O)[O-])cc2)C1 [RA183, reference compound] | – | – | 54 | – | reduced bioluminescence | raised the level of ROS in a dose-dependent manner | – | – | – | – | 193 | 263 | – | 193 | > 1000 | 133 | 133 | 293 | 44 | 186 | IC50 ([3]; SK-OV-3, 48 h, read-out: IC50 SKOV3): 54 nM; IC50 ([17]; 48 h, read-out: IC50 LNCaP): 186 nM; IC50 ([12]; read-out: IC50 SiHa, Table 3, MTT, 48 hr, Cervical (HPV +ve)): 263 nM
4 | N[C@@H](Cc1ccccc1)C(=O)N1C/C(=C\c2ccc(Cl)c(Cl)c2)C(=O)/C(=C/c2ccc(Cl)c(Cl)c2)C1 [RA190, reference compound] | 396 | – | 73 | 233 | – | – | – | – | 38 | – | 239 | 603 | > 1000 | – | – | – | 162 | – | – | 242 | IC50 ([15]; ME-180, Table 3, MTT, 48 hr, Cervical (HPV +ve)): 183 nM; IC50 ([16]; HCC1806, Table 3, MTT, 48 hr, Triple Negative Breast): 52 nM
5 | O=C(CCl)N[C@@H](Cc1ccccc1)C(=O)N1C/C(=C\c2ccc([N+](=O)[O-])cc2)C(=O)/C(=C/c2ccc([N+](=O)[O-])cc2)C1 [RA375] | 60 | – | 26 | – | – | – | – | – | – | 43 | 89 | – | – | – | > 1000 | 27 | – | 20 | 17 | – | IC50 ([17]; 48 h, read-out: IC50 LNCaP): 60 nM; IC50 ([12]; read-out: IC50 SiHa): 41 nM
6 | CC1/C(=C\c2ccc([N+](=O)[O-])cc2)C(=O)/C(=C/c2ccc([N+](=O)[O-])cc2)CN1C(=O)[C@H](Cc1ccccc1)NC(=O)CCl (some centres unmarked) [RA414] | 30 | significantly increased CHOP10 transcript levels | < 20 | < 20 | – | raised the level of ROS in a dose-dependent manner | reduced intracellular GSH concentrations | 40 | – | < 40 | 20 | 7.5 | – | – | – | – | 12 | – | – | 24 | –
